What is called EC50 is the concentration at which the effect is half-maximal.

The experiment deals with human GLP-1 receptor (Homo sapiens (Human), UniProt P43220). As to conditions: read-out: Mean EC50; cAMP, HTRF detection, 30 min at 37° C., HEK-293 cells expressing cloned human GLP-1 receptor.
human GLP-1 receptor, sequence (P43220 24-463): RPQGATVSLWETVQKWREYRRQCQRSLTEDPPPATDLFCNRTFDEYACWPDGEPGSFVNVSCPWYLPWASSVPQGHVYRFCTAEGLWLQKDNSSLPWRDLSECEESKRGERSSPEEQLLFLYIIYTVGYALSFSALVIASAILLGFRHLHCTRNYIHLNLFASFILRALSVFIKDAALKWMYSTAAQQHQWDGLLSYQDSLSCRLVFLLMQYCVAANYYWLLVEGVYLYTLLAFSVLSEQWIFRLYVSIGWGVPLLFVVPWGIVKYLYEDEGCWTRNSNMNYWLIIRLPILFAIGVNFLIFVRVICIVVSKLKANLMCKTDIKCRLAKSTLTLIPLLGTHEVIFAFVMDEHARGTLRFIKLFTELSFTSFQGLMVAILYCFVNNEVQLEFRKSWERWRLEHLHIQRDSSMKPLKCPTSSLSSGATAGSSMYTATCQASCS
For the compound `CC[C@@H](c1ccccc1)N1Cc2cc3c(cc2C[C@H]1C(=O)N[C@@H](Cc1ccc(-c2ccnc(C)c2C)cc1)C(=O)O)OC[C@H](c1ccc(OC2CCCC2)cc1)O3` [Example 171, (S)-2-{[(3S,8S)-3-(4-Cyclopentyloxy-phenyl)-7-((S)-1-phenyl-propyl)-2,3,6,7,8,9-hexahydro-[1,4]dioxino[2,3-g]isoquinoline-8-carbonyl]-amino}-3-[4-(2,3-dimethyl-pyridin-4-yl)-phenyl]-propionic acid], the EC50 turned out to be 118 nM.

`CC[C@@H](c1ccccc1)N1Cc2cc3c(cc2C[C@H]1C(=O)N[C@@H](Cc1ccc(-c2ccnc(C)c2C)cc1)C(=O)O)OC[C@H](c1ccc(OCC(C)C)cc1)O3` [Example 172, (S)-3-[4-(2,3-Dimethyl-pyridin-4-yl)-phenyl]-2-{[(3S,8S)-3-(4-isobutoxy-phenyl)-7-((S)-1-phenyl-propyl)-2,3,6,7,8,9-hexahydro-[1,4]dioxino[2,3-g]isoquinoline-8-carbonyl]-amino}-propionic acid]: the concentration for a half-maximal effect (EC50) was 132 nM.

As to `CC[C@@H](c1ccccc1)N1Cc2cc3c(cc2C[C@H]1C(=O)N[C@@H](Cc1ccc(-c2ccnc(C)c2C)cc1)C(=O)O)OC[C@H](c1ccc(OC2CC4CCC2C4)cc1)O3` (stereo partly drawn) [Example 173, (S)-2-{[(3S,8S)-3-[4-(Bicyclo[2.2.1]hept-2-yloxy)-phenyl]-7-((S)-1-phenyl-propyl)-2,3,6,7,8,9-hexahydro-[1,4]dioxino[2,3-g]isoquinoline-8-carbonyl]-amino}-3-[4-(2,3-dimethyl-pyridin-4-yl)-phenyl]-propionic acid], the EC50 came out at 145 nM.

Regarding `Cc1nccc(-c2ccc(C[C@H](NC(=O)[C@@H]3Cc4cc5c(cc4CN3C(=O)OC(C)(C)C)O[C@@H](c3ccc(OCc4ccc(Cl)c(Cl)c4)cc3)CO5)C(=O)O)cc2)c1C` [Example 174, (3S,8S)-8-{(S)-1-Carboxy-2-[4-(2,3-dimethyl-pyridin-4-yl)-phenyl]-ethylcarbamoyl}-3-[4-(3,4-dichloro-benzyloxy)-phenyl]-2,3,8,9-tetrahydro-6H-[1,4]dioxino[2,3-g]isoquinoline-7-carboxylic acid tert-butyl ester], the half-maximal effective concentration (EC50) is 153 nM.

`Cc1nccc(-c2ccc(C[C@H](NC(=O)[C@@H]3Cc4cc5c(cc4CN3Cc3ccccn3)O[C@@H](c3ccc(OCc4ccc(Cl)c(Cl)c4)cc3)CO5)C(=O)O)cc2)c1C` [Example 175, (S)-2-({(3S,8S)-3-[4-(3,4-Dichloro-benzyloxy)-phenyl]-7-pyridin-2-ylmethyl-2,3,6,7,8,9-hexahydro-[1,4]dioxino[2,3-g]isoquinoline-8-carbonyl}-amino)-3-[4-(2,3-dimethyl-pyridin-4-yl)-phenyl]-propionic acid]: the EC50 was 5 nM.

Regarding `Cc1ccccc1CN1Cc2cc3c(cc2C[C@H]1C(=O)N[C@@H](Cc1ccc(-c2ccnc(C)c2C)cc1)C(=O)O)OC[C@H](c1ccc(OCc2ccc(Cl)c(Cl)c2)cc1)O3` [Example 176, (S)-2-{[(3S,8S)-3-[4-(3,4-Dichloro-benzyloxy)-phenyl]-7-(2-methyl-benzyl)-2,3,6,7,8,9-hexahydro-[1,4]dioxino[2,3-g]isoquinoline-8-carbonyl]-amino}-3-[4-(2,3-dimethyl-pyridin-4-yl)-phenyl]-propionic acid], the EC50 is 4 nM.

In the case of `Cc1cc(Oc2ccc(C[C@H](NC(=O)[C@@H]3Cc4cc5c(cc4CN3C(=O)c3ccccc3)O[C@@H](c3ccc(OCc4ccc(Cl)c(Cl)c4)cc3)CO5)C(=O)O)cc2)ccn1` [Example 177, (S)-2-({(3S,8S)-7-Benzoyl-3-[4-(3,4-dichloro-benzyloxy)-phenyl]-2,3,6,7,8,9-hexahydro-[1,4]dioxino[2,3-g]isoquinoline-8-carbonyl}-amino)-3-[4-(2-methyl-pyridin-4-yloxy)-phenyl]-propionic acid], the EC50 came to 150 nM.

`CCC[C@@H](c1ccccc1)N1Cc2cc3c(cc2C[C@H]1C(=O)N[C@@H](Cc1ccc(-c2ccc(C#N)cc2)cc1)C(=O)O)OC[C@H](c1ccc(OCc2ccc(Cl)c(Cl)c2)cc1)O3` [Example 178, (S)-3-(4′-Cyano-biphenyl-4-yl)-2-{[(3S,8S)-3-[4-(3,4-dichloro-benzyloxy)-phenyl]-7-((S)-1-phenyl-butyl)-2,3,6,7,8,9-hexahydro-[1,4]dioxino[2,3-g]isoquinoline-8-carbonyl]-amino}-propionic acid]: the concentration for a half-maximal effect (EC50) was determined as 306 nM.

Consider `CC[C@@H](c1ccccc1)N1Cc2cc3c(cc2C[C@H]1C(=O)N[C@@H](Cc1ccc(-c2ccnc(C)c2C)cc1)C(=O)O)OC[C@H](c1ccc(OCc2ccc(Cl)c(Cl)c2)cc1)O3` [Example 179, (S)-2-{[(3S,8S)-3-[4-(3,4-Dichloro-benzyloxy)-phenyl]-7-((S)-1-phenyl-propyl)-2,3,6,7,8,9-hexahydro-[1,4]dioxino[2,3-g]isoquinoline-8-carbonyl]-amino}-3-[4-(2,3-dimethyl-pyridin-4-yl)-phenyl]-propionic acid], for which the EC50 turned out to be 5 nM.

As for `CC[C@@H](c1ccccc1)N1Cc2cc3c(cc2C[C@H]1C(=O)N[C@@H](Cc1ccc(-c2cc(C)nn2C)cc1)C(=O)O)OC[C@H](c1ccc(OCc2ccc(Cl)c(Cl)c2)cc1)O3` [Example 180, (S)-2-{[(3S,8S)-3-[4-(3,4-Dichloro-benzyloxy)-phenyl]-7-((S)-1-phenyl-propyl)-2,3,6,7,8,9-hexahydro-[1,4]dioxino[2,3-g]isoquinoline-8-carbonyl]-amino}-3-[4-(2,5-dimethyl-2H-pyrazol-3-yl)-phenyl]-propionic acid], the EC50 stood at 3 nM.

Consider `CC[C@@H](c1ccccc1)N1Cc2cc3c(cc2C[C@H]1C(=O)N[C@@H](Cc1ccc(Oc2ccnc(C)c2)cc1)C(=O)O)OC[C@H](c1ccc(OCc2ccc(Cl)c(Cl)c2)cc1)O3` [Example 181, (S)-2-{[(3S,8S)-3-[4-(3,4-Dichloro-benzyloxy)-phenyl]-7-((S)-1-phenyl-propyl)-2,3,6,7,8,9-hexahydro-[1,4]dioxino[2,3-g]isoquinoline-8-carbonyl]-amino}-3-[4-(2-methyl-pyridin-4-yloxy)-phenyl]-propionic acid], for which the EC50 stood at 16 nM.

Turning to `CC[C@@H](c1ccccc1)N1Cc2cc3c(cc2C[C@H]1C(=O)N[C@@H](Cc1ccc(-c2ccnc4c2CCC4)cc1)C(=O)O)OC[C@H](c1ccc(OCc2ccc(Cl)c(Cl)c2)cc1)O3` [Example 182, (S)-2-{[(3S,8S)-3-[4-(3,4-Dichloro-benzyloxy)-phenyl]-7-((S)-1-phenyl-propyl)-2,3,6,7,8,9-hexahydro-[1,4]dioxino[2,3-g]isoquinoline-8-carbonyl]-amino}-3-[4-(6,7-dihydro-5H-[1]pyrindin-4-yl)-phenyl]-propionic acid], the EC50 was determined as 29 nM.

Turning to `CC[C@@H](c1ccccc1)N1Cc2cc3c(cc2C[C@H]1C(=O)N[C@@H](Cc1ccc(Oc2ccncc2)cc1)C(=O)O)OC[C@H](c1ccc(OCc2ccc(Cl)c(Cl)c2)cc1)O3` [Example 184], the half-maximal effective concentration (EC50) stood at 74 nM.

Regarding `CC[C@@H](c1ccccc1)N1Cc2cc3c(cc2C[C@H]1C(=O)N[C@@H](Cc1ccc(Oc2cccnc2)cc1)C(=O)O)OC[C@H](c1ccc(OCc2ccc(Cl)c(Cl)c2)cc1)O3` [Example 185, (S)-2-{[(3S,8S)-3-[4-(3,4-Dichloro-benzyloxy)-phenyl]-7-((S)-1-phenyl-propyl)-2,3,6,7,8,9-hexahydro-[1,4]dioxino[2,3-g]isoquinoline-8-carbonyl]-amino}-3-[4-(pyridin-3-yloxy)-phenyl]-propionic acid], the concentration for a half-maximal effect (EC50) is 119 nM.

As for `CC[C@@H](c1ccccc1)N1Cc2cc3c(cc2C[C@H]1C(=O)N[C@@H](Cc1ccc(-c2ccnnc2)cc1)C(=O)O)OC[C@H](c1ccc(OCc2ccc(Cl)c(Cl)c2)cc1)O3` [Example 186, (S)-2-{[(3S,8S)-3-[4-(3,4-Dichloro-benzyloxy)-phenyl]-7-((S)-1-phenyl-propyl)-2,3,6,7,8,9-hexahydro-[1,4]dioxino[2,3-g]isoquinoline-8-carbonyl]-amino}-3-(4-pyridazin-4-yl-phenyl)-propionic acid], the 50% effective concentration (EC50) is 256 nM.

Consider `CC[C@@H](c1ccccc1)N1Cc2cc3c(cc2C[C@H]1C(=O)N[C@@H](Cc1ccc(-c2cc(C)nc(C)c2)cc1)C(=O)O)OC[C@H](c1ccc(OCc2ccc(Cl)c(Cl)c2)cc1)O3` [Example 188, (S)-2-{[(3S,8S)-3-[4-(3,4-Dichloro-benzyloxy)-phenyl]-7-((S)-1-phenyl-propyl)-2,3,6,7,8,9-hexahydro-[1,4]dioxino[2,3-g]isoquinoline-8-carbonyl]-amino}-3-[4-(2,6-dimethyl-pyridin-4-yl)-phenyl]-propionic acid], for which the concentration giving a half-maximal response (EC50) was 14 nM.

Turning to `CC[C@@H](c1ccccc1)N1Cc2cc3c(cc2C[C@H]1C(=O)N[C@@H](Cc1ccc(Oc2ccnc(C)c2C)cc1)C(=O)O)OC[C@H](c1ccc(OCc2ccc(Cl)c(Cl)c2)cc1)O3` [Example 189, (S)-2-{[(3S,8S)-3-[4-(3,4-Dichloro-benzyloxy)-phenyl]-7-((S)-1-phenyl-propyl)-2,3,6,7,8,9-hexahydro-[1,4]dioxino[2,3-g]isoquinoline-8-carbonyl]-amino}-3-[4-(2,3-dimethyl-pyridin-4-yloxy)-phenyl]-propionic acid], the EC50 was found to be 31 nM.

`CC[C@@H](c1ccccc1)N1Cc2cc3c(cc2C[C@H]1C(=O)N[C@@H](Cc1ccc(-c2cc(C)ncc2C)cc1)C(=O)O)OC[C@H](c1ccc(OCc2ccc(Cl)c(Cl)c2)cc1)O3` [Example 190, (S)-2-{[(3S,8S)-3-[4-(3,4-Dichloro-benzyloxy)-phenyl]-7-((S)-1-phenyl-propyl)-2,3,6,7,8,9-hexahydro-[1,4]dioxino[2,3-g]isoquinoline-8-carbonyl]-amino}-3-[4-(2,5-dimethyl-pyridin-4-yl)-phenyl]-propionic acid]: the EC50 stood at 11 nM.

As for `CC[C@@H](c1ccccc1)N1Cc2cc3c(cc2C[C@H]1C(=O)N[C@@H](Cc1ccc(-c2ccnn2C)cc1)C(=O)O)OC[C@H](c1ccc(OCc2ccc(Cl)c(Cl)c2)cc1)O3` [Example 191, (S)-2-{[(3S,8S)-3-[4-(3,4-Dichloro-benzyloxy)-phenyl]-7-((S)-1-phenyl-propyl)-2,3,6,7,8,9-hexahydro-[1,4]dioxino[2,3-g]isoquinoline-8-carbonyl]-amino}-3-[4-(2-methyl-2H-pyrazol-3-yl)-phenyl]-propionic acid], the EC50 is 66 nM.

The values are drawn from US9175003B2, “Substituted azoanthracene derivatives and intermediates for preparation thereof” (TransTech Pharma, LLC, priority 2009, dated 2015).
